# Patent US20260317298A1, “Cereblon Ligands and Uses Thereof” (REGENTS OF THE UNIVERSITY OF MICHIGAN, priority 2022, published 2026)
# Where a name gives a salt, the structure may show the parent alone.
# Molecular target: CRBN/DDB1 (Homo sapiens, UniProt Q96SW2)
# Assay: biochemical
# Protocol: The CRBN−DDB1 binding potency of the present disclosure was determined using HTRF assay technology (Perkin Elmer). Compounds are serially diluted and are transferred multi-well plate. The reaction was conducted with addition of His tagged (e.g., CRBN+DDB-DLS7+CXU4) followed by addition of fluorescent probe (e.g., Cy5-labeled Thalidomide), and MAb Anti-6HIS Tb cryptate Gold in the assay buffer. After certain period of incubation at room temperature, the HTRF signals were read on a reader.
# The binding potency was determined using HTRF assay technology (Perkin Elmer). Compounds were serially diluted in DMSO and 0.2 μL volume was transferred to white 384-well plate. […] After one hour incubation at room temperature, the HTRF signals were read on Envision reader (Perkin Elemer). Data was analyzed using XLfit using four parameters dose response curve to determine IC50s.
# Sequence of CRBN/DDB1 (Q96SW2 whole entry): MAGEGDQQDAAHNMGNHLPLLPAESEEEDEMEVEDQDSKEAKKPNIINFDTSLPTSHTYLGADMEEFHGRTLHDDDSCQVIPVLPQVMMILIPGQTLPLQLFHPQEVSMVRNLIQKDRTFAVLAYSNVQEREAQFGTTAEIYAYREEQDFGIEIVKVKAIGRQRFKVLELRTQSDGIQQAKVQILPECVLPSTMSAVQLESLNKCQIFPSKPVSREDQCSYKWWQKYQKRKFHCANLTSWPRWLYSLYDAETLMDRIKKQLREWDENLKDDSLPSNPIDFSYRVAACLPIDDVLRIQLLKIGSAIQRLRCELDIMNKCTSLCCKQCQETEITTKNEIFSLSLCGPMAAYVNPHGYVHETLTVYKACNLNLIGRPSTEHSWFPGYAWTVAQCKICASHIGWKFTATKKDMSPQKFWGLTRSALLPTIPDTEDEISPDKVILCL
# Sequence of CRBN/DDB1 (Q16531 whole entry partner): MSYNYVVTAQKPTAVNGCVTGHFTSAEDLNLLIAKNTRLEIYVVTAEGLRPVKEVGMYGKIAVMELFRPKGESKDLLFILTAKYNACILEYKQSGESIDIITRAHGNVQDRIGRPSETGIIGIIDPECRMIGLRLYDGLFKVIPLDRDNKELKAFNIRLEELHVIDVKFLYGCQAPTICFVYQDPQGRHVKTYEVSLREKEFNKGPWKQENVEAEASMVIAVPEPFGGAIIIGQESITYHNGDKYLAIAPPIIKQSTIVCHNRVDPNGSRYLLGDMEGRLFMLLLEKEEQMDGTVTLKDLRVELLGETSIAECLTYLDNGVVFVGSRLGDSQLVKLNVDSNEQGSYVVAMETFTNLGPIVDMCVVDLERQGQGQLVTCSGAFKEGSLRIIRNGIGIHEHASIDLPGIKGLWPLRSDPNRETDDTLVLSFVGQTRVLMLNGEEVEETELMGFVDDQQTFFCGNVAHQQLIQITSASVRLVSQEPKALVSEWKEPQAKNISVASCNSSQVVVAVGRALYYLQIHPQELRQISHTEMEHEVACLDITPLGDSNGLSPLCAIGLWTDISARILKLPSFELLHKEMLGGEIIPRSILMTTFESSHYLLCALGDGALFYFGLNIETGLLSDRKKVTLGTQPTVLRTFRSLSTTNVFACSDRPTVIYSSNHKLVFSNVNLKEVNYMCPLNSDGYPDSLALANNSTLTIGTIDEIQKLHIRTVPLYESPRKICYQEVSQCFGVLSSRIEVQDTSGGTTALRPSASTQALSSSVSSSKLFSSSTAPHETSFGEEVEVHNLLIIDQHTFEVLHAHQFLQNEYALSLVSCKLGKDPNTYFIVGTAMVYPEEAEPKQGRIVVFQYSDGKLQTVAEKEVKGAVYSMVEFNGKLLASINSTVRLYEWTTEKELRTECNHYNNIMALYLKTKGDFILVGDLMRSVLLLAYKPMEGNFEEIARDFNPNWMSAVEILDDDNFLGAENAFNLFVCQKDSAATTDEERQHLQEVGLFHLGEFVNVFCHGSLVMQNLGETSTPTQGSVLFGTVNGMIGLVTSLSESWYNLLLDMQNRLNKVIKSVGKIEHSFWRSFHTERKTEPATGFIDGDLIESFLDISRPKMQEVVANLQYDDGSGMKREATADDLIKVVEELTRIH
row,SMILES,IC50
1,"O=C1CC[C@@H](Nc2ccc([C@]34CCNC[C@H]3C4(F)F)cc2)C(=O)N1 [Compound 3, (R)-3-((4-((1S,6S)-7,7-difluoro-3-azabicyclo[4.1.0]heptan-6-yl)phenyl)amino)piperidine-2,6-dione]",0.5 to 5 µM
2,"O=C1CC[C@H](Oc2ccc3c(c2)OCC32CCNCC2)C(=O)N1 [Compound 6, (S)-3-((2H-spiro[benzofuran-3,4′-piperidin]-6-yl)oxy)piperidine-2,6-dione]",0.5 to 5 µM
3,"O=C1CC[C@H](Nc2ccc([C@]34CCNC[C@H]3C4(F)F)cc2)C(=O)N1 [Compound 4, (S)-3-((4-((1S,6S)-7,7-difluoro-3-azabicyclo[4.1.0]heptan-6-yl)phenyl)amino)piperidine-2,6-dione]",0.5 to 5 µM
4,"O=C1CCC(Nc2ccc3c(c2)COC32CCNCC2)C(=O)N1 (centres unmarked) [Compound 15, 3-((3H-spiro[isobenzofuran-1,4′-piperidin]-5-yl)amino)piperidine-2,6-dione HCO2H salt]",0.5 to 5 µM
5,"O=C1CC[C@@H](Oc2ccc3c(c2)OCC32CCNCC2)C(=O)N1 [Compound 5, (R)-3-((2H-spiro[benzofuran-3,4′-piperidin]-6-yl)oxy)piperidine-2,6-dione]",0.5 to 5 µM
6,"O=C1CCC(Nc2ccc3c(c2)OCC32CCNCC2)C(=O)N1 (stereo in doubt) [Compound 11, (R)-3-((2H-spiro[benzofuran-3,4′-piperidin]-6-yl)amino)piperidine-2,6-dione]",0.05 to 0.5 µM
7,"Cc1cc([C@@]23CCNC[C@@H]2C3(F)F)ccc1N[C@@H]1CCC(=O)NC1=O [Compound 7, (R)-3-((4-((1R,6R)-7,7-difluoro-3-azabicyclo[4.1.0]heptan-6-yl)-2-methylphenyl)amino)piperidine-2,6-dione]",> 5 µM
8,"O=C1CC[C@H](Nc2ccc([C@@]34CCNC[C@@H]3C4(F)F)cc2)C(=O)N1 (single isomer, unassigned) [Compound 1]",0.5 to 5 µM
9,"O=C1CCC(Nc2cc3c(cc2F)C2(CCNCC2)CO3)C(=O)N1 (centres unmarked) [Compound 18, 3-((5-fluoro-2H-spiro[benzofuran-3,4′-piperidin]-6-yl)amino)piperidine-2,6-dione HCl salt]",0.5 to 5 µM
10,"O=C1CCC2(CC1)COc1cc(NC3CCC(=O)NC3=O)ccc12 (centres unmarked) [Compound 17, 3-((4′-oxo-2H-spiro[benzofuran-3,1′-cyclohexan]-6-yl)amino)piperidine-2,6-dione]",0.5 to 5 µM
11,"O=C1CCC(Nc2ccc3c(c2)OCC32CCNCC2)C(=O)N1 (stereo in doubt) [Compound 12, (S)-3-((2H-spiro[benzofuran-3,4′-piperidin]-6-yl)amino)piperidine-2,6-dione]",0.5 to 5 µM
12,"O=C1CCC(Nc2ccc3c(c2)OCC32CCNCC2(F)F)C(=O)N1 (centres unmarked) [Compound 16, 3-((3′,3′-difluoro-2H-spiro[benzofuran-3,4′-piperidin]-6-yl)amino)piperidine-2,6-dione]",0.5 to 5 µM
13,"Cc1cc([C@]23CCNC[C@H]2C3(F)F)ccc1N[C@H]1CCC(=O)NC1=O [Compound 10, (S)-3-((4-((1S,6S)-7,7-difluoro-3-azabicyclo[4.1.0]heptan-6-yl)-2-methylphenyl)amino)piperidine-2,6-dione]",> 5 µM
14,"Cc1cc([C@]23CCNC[C@H]2C3(F)F)ccc1N[C@@H]1CCC(=O)NC1=O [Compound 9, (R)-3-((4-((1S,6S)-7,7-difluoro-3-azabicyclo[4.1.0]heptan-6-yl)-2-methylphenyl)amino)piperidine-2,6-dione]",0.5 to 5 µM
15,"O=C1CCC(Nc2cc(F)c3c(c2)OCC32CCNCC2)C(=O)N1 (centres unmarked) [Compound 19, 3-((4-fluoro-2H-spiro[benzofuran-3,4′-piperidin]-6-yl)amino)piperidine-2,6-dione HCl salt]",0.05 to 0.5 µM
16,"Cc1cc([C@@]23CCNC[C@@H]2C3(F)F)ccc1N[C@H]1CCC(=O)NC1=O [Compound 8, (S)-3-((4-((1R,6R)-7,7-difluoro-3-azabicyclo[4.1.0]heptan-6-yl)-2-methylphenyl)amino)piperidine-2,6-dione]",0.5 to 5 µM
17,"O=C1CC[C@@H](Nc2ccc([C@@]34CCNC[C@@H]3C4(F)F)cc2)C(=O)N1 (single isomer, unassigned) [Compound 2]",0.5 to 5 µM
